Assay [1] has as its system Bacillus subtilis (ATCC-6633). The assay can be described thus: microbe, parasite or virus in culture. The following applies: ATCC6633, Gram-positive. The format is cell-based. Here is the method: (§1) Daptomycin and polymyxin B were selected as positive controls against Gram-positive and Gram-negative bacteria, respectively.
(§2) All experiments were conducted in triplicate.

Another assay concerns E. faecalis (ATCC 29212). The assay can be described thus: microbe, parasite or virus in culture. The class given is cell-based. The settings on record: Enterococcus faecalis, ATCC29212; Gram-positive. Here is the method:
as §1, §2

A further assay has as its system E. faecalis (ATCC 51575). The assay can be described thus: microbe, parasite or virus in culture. The format is cell-based. The following applies: Enterococcus faecalis, ATCC51575; Gram-positive; gentamicin-, streptomycin-, vancomycin-resistant. The protocol:
as §1, §2

A further assay concerns E. faecium (ATCC 27270). The assay is described as follows: microbe, parasite or virus in culture. The format is cell-based. The following applies: Enterococcus faecium, ATCC27270; Gram-positive. Here is the method:
as §1, §2

The subject of assay [2] is S. pneumonia (ATCC 49619). The assay can be described thus: microbe, parasite or virus in culture. The format is cell-based. The settings on record: Streptococcus pneumoniae, ATCC49619; Gram-positive. Here is the method:
as §1, §2

Assay [3] has as its system S. pneumonia (ATCC 51938). The assay can be described thus: microbe, parasite or virus in culture. The format is cell-based. The settings on record: Streptococcus pneumoniae, ATCC51938; Gram-positive; penicillin-, clindamycin-, cotrimoxazole-, erythromycin-resistant. The protocol:
as §1, §2

In assay [4] the test system is P. aeruginosa (ATCC 27883). The assay is described as follows: Synergistic checkerboard assay. The format is cell-based. The following applies: Pseudomonas aeruginosa.
Method: (§3) This study aimed to compare the influence of synergistic combinations on the antibacterial efficacy against the individual peptide or antibiotic. The comparison is represented by the fractional inhibitory concentration index (FICI) value, which classifies the combined impact of the two tested compounds. Selected antibiotics were tested as 11 dose points of two-fold serial dilutions across the assay plate in combination with seven points of two-fold serial dilution of the peptides down the assay plate. Two-fold serial dilutions for antibiotics and peptides were performed individually to determine the MIC value for each tested compound.
(§4) The concentrations of the peptide started from its respective MICs and were then subjected to two-fold serial dilutions (a total of 7 points). […] Antibiotics were tested as 11 points, two-fold serial dilutions across the assay plate (from 1 to 11 columns) in combination with a seven (A–G)-point and two-fold serial dilution of the peptides down the assay plate. […] In column 12 (A–G) down the assay plate, a two-fold serial dilution of the peptide alone was performed.
(§5) The following equation was applied to calculate the FICI: (A)/MICA + (B)/MICB = FICA + FICB = FICI, where (A) and (B) are the MIC of (antibiotic + [peptide]) in combination (in a single well) and MICA and MICB are the MIC of each compound individually. Based on the calculated FICI value, the interaction between combinations was categorized into four prospects synergy, partial synergy, additive or indifference, and antagonism. […] All experiments were performed in triplicate.
For assay [5], the system named is E. coli (ATCC 25922). The assay is described as follows: Synergistic checkerboard assay. The format is cell-based. The settings on record: Escherichia coli.
Method: as §3
(§6) The concentrations of the peptide started from its respective MICs and were then subjected to two-fold serial dilutions (a total of 7 points). […]
(§7) The following equation was applied to calculate the FICI: (A)/MICA + (B)/MICB = FICA + FICB = FICI, where (A) and (B) are the MIC of (antibiotic + [peptide]) in combination (in a single well) and MICA and MICB are the MIC of each compound individually. Based on the calculated FICI value, the interaction between combinations was categorized into four prospects synergy, partial synergy, additive or indifference, and antagonism. […]
Assay [6] concerns S. aureus (ATCC 29213), MRSA (ATCC BAA-1556), E. coli (ATCC 25922), E. coli (ATCC BAA-2452). The assay can be described thus: Serial passage resistance development study. The class given is cell-based, S. aureus and E. coli. The settings on record: 18 repeated passages.
Method: The data represent the experiments performed in triplicate.
The assays were performed in 96-well microtiter plates using 2-fold serial dilutions of all the test specimens. From an inoculated microtiter plate, an aliquot of the well with the highest concentration permitting growth was taken and diluted in fresh media to achieve the optimum bacterial load identified by comparing the turbidity with the 0.5 McFarland standard. The bacterial suspension was then further diluted and used for successive passage with a resulting final concentration of 5 × 10^5 CFU/mL. MICs were recorded, and the next inoculum was prepared from the well containing the highest concentration of the drug that allowed growth. Eighteen repeated passages were performed in an identical fashion to that described above.
Assay [7] relates to K. pneumoniae (ATCC BAA-1705). The settings on record: antibiotic alone or physical mixture with peptide (1:1 w/w).
Assay [8] relates to P. aeruginosa (ATCC 27883). The following applies: antibiotic alone or physical mixture with peptide (1:1 w/w).
The subject of assay [9] is E. coli (ATCC 25922). The following applies: antibiotic alone or physical mixture with peptide (1:1 w/w).
Assay [10] in a line: Calcein dye leakage assay. The settings on record: 50 μg/mL, 100 min.
Assay [11] is described as follows: Calcein dye leakage assay. The following applies: 50 μg/mL, 100 min. This is another data set of the same source.
The test system of assay [12] is K. pneumoniae (ATCC BAA-1705). The assay can be described thus: Synergistic checkerboard assay. The following applies: Klebsiella pneumoniae, ATCCBAA1705, read-out: MIC antibiotic alone.
Method: as §3, §4, §5
The test system of assay [13] is MRSA (ATCC BAA-1556). The assay can be described thus: microbe, parasite or virus in culture. The following applies: Staphylococcus aureus, ATCCBAA1556|MRSA, 24 h, read-out: MBC MRSA (ATCC BAA-1556).
The test system of another assay is S. aureus (1193193). The assay can be described thus: microbe, parasite or virus in culture. The following applies: Staphylococcus aureus, read-out: MIC S. aureus (1193193).
The next assay concerns S. aureus (ATCC 29213). The assay can be described thus: microbe, parasite or virus in culture. The following applies: Staphylococcus aureus, ATCC29213, read-out: MIC S. aureus (ATCC 29213).
The subject of a further assay is E. coli (1191008). The assay is described as follows: microbe, parasite or virus in culture. The following applies: Escherichia coli, read-out: MIC E. coli (1191008).
Assay [14] relates to E. coli (ATCC 25922). The assay is described as follows: microbe, parasite or virus in culture. The settings on record: Escherichia coli, ATCC25922, read-out: MIC E. coli (ATCC 25922).
In assay [15] the test system is K. pneumoniae (ATCC 700603). The assay can be described thus: microbe, parasite or virus in culture. The settings on record: Klebsiella pneumoniae, ATCC700603, read-out: MIC K. pneumoniae (ATCC 700603).
A further assay has as its system K. pneumoniae (1188718). The assay can be described thus: microbe, parasite or virus in culture. The following applies: Klebsiella pneumoniae, read-out: MIC K. pneumoniae (1188718).
Another assay concerns P. aeruginosa (1188712). The assay can be described thus: microbe, parasite or virus in culture. The settings on record: Pseudomonas aeruginosa, read-out: MIC P. aeruginosa (1188712).
Assay [16] deals with P. aeruginosa (ATCC 27853). The assay is described as follows: microbe, parasite or virus in culture. The following applies: Pseudomonas aeruginosa, ATCC27853, read-out: MIC P. aeruginosa (ATCC 27853).
The test system of assay [17] is Acinetobacter baumannii (ATCCBAA-1605). The assay can be described thus: microbe, parasite or virus in culture. The format is cell-based. The following applies: ATCCBAA1605, read-out: MIC Acinetobacter baumannii (ATCCBAA-1605). Here is the method:
as §1, §2

A further assay has as its system E. coli (ATCC BAA-2452). The assay can be described thus: microbe, parasite or virus in culture. The class given is cell-based. The settings on record: Escherichia coli, ATCCBAA2452, read-out: MIC E. coli (ATCC BAA-2452). The protocol:
as §1, §2

The test system of assay [18] is K. pneumoniae (ATCC 13883). The assay can be described thus: microbe, parasite or virus in culture. The class given is cell-based. The settings on record: Klebsiella pneumoniae, ATCC13883, read-out: MIC K. pneumoniae (ATCC 13883). Here is the method: as §1, §2
Assay [19] concerns P. aeruginosa (ATCC 10145). The assay can be described thus: microbe, parasite or virus in culture. The settings on record: Pseudomonas aeruginosa, ATCC10145, read-out: MIC P. aeruginosa (ATCC 10145). The format is cell-based. Here is the method:
as §1, §2

Assay [20] concerns P. aeruginosa (ATCC BAA-1744). The assay can be described thus: microbe, parasite or virus in culture. The settings on record: Pseudomonas aeruginosa, ATCCBAA1744, read-out: MIC P. aeruginosa (ATCC BAA-1744). The format is cell-based. The protocol: as §1, §2
Assay [21] has as its system S. aureus (ATCC BAA-1556). The assay is described as follows: Synergistic checkerboard assay. The class given is cell-based. The settings on record: Staphylococcus aureus, ATCCBAA1556, read-out: MIC antibiotic alone.
Method: as §3, §6, §7
Assay [22] has as its system MRSA (ATCC BAA-1556). The following applies: antibiotic alone or physical mixture with peptide (1:1 w/w).
Assay [23] deals with MRSA (ATCC BAA-1556). The assay can be described thus: microbe, parasite or virus in culture. The following applies: Staphylococcus aureus, read-out: MIC MRSA (ATCC BAA-1556).
Assay [24] concerns K. pneumoniae (ATCC BAA-1705). The assay can be described thus: microbe, parasite or virus in culture. The following applies: Klebsiella pneumoniae, ATCCBAA1705, read-out: MIC K. pneumoniae (ATCC BAA-1705).
Assay [25] deals with P. aeruginosa (ATCC 27883). The assay can be described thus: microbe, parasite or virus in culture. The following applies: Pseudomonas aeruginosa, ATCC27883, read-out: MIC P. aeruginosa (ATCC 27883).
Assay [26] relates to E. coli (ATCC 25922). The assay can be described thus: microbe, parasite or virus in culture. The following applies: Escherichia coli, ATCC25922, read-out: MIC E. coli (ATCC 25922). The source holds these as a separate data set.
The subject of assay [27] is K. pneumoniae (ATCC BAA-1705). The assay can be described thus: microbe, parasite or virus in culture. The settings on record: Klebsiella pneumoniae, ATCCBAA1705, 24 h, read-out: MBC K. pneumoniae (ATCC BAA-1705).
The subject of assay [28] is P. aeruginosa (ATCC 27883). The assay is described as follows: microbe, parasite or virus in culture. The following applies: Pseudomonas aeruginosa, ATCC27883, 24 h, read-out: MBC P. aeruginosa (ATCC 27883).
The subject of assay [29] is E. coli (ATCC 25922). The assay can be described thus: microbe, parasite or virus in culture. The following applies: Escherichia coli, ATCC25922, 24 h, read-out: MBC E. coli (ATCC 25922).

In brackets after ≈: the same amount, converted by molar mass. Bridge positions count the residues as written; N and C are the ends. Square brackets hold non-standard residues; d marks the D form. Peptide text beside a SMILES is read from it. * marks the point of attachment. X1 = CC[C@H](C)CCCCC(=O)*; Dab = NCC[C@H](N)C(=O)O

As for `CCCCCCCCCC(=O)N[C@@H](Cc1c[nH]c2ccccc12)C(=O)N[C@H](CC(N)=O)C(=O)N[C@@H](CC(=O)O)C(=O)N[C@@H]1C(=O)NCC(=O)N[C@@H](CCCN)C(=O)N[C@@H](CC(=O)O)C(=O)N[C@H](C)C(=O)N[C@@H](CC(=O)O)C(=O)NCC(=O)N[C@H](CO)C(=O)N[C@@H]([C@H](C)CC(=O)O)C(=O)N[C@@H](CC(=O)c2ccccc2N)C(=O)O[C@@H]1C` [daptomycin], the MIC in assay [1] came out at 0.5 µg/mL (≈ 0.309 µM); against E. faecalis (ATCC 29212), 16 µg/mL (≈ 9.87 µM); against E. faecalis (ATCC 51575) it was 4 µg/mL (≈ 2.47 µM); against E. faecium (ATCC 27270), 4 µg/mL (≈ 2.47 µM); in [2] it was 4 µg/mL (≈ 2.47 µM); in [3], 8 µg/mL (≈ 4.94 µM). In addition, the MIC is 512 µg/mL in assay [4] (ATCC27883, checkerboard, read-out: MIC antibiotic alone); above 128 µg/mL in the assay with E. coli (ATCC 25922) [5] (ATCC25922, checkerboard, read-out: MIC antibiotic alone); 512 µg/mL in assay [12]. For the same compound, the “change in MIC on resistance induction” value in assay [6] was “negligible changes in the MICs”. Moreover, the “MIC K. pneumoniae (ATCC BAA-1705)” value in assay [7] came to 512 µg/mL (≈ 316 µM). Further, the “MIC P. aeruginosa (ATCC 27883)” value in [8] turned out to be 512 µg/mL (≈ 316 µM). Also, in the assay with E. coli (ATCC 25922) [9], the “MIC E. coli (ATCC 25922)” value is recorded as 256 µg/mL (≈ 158 µM). Also, the calcein dye release in assay [10] was 42%. Besides, in assay [11], the calcein dye leakage result was “around 7%”. In the assay with MRSA (ATCC BAA-1556) [13], the MBC came to 8 µg/mL (≈ 4.94 µM).
As to `CO/N=C(\C(=O)N[C@@H]1C(=O)N2C(C(=O)[O-])=C(C[N+]3(C)CCCC3)CS[C@H]12)c1csc(N)n1` [cefepime], the MIC came to 16 µg/mL (≈ 33.3 µM) with S. aureus (1193193); 2 µg/mL (≈ 4.16 µM) with S. aureus (ATCC 29213); 8 µg/mL (≈ 16.6 µM) with E. coli (1191008); 0.06 µg/mL (≈ 0.125 µM) in the assay with E. coli (ATCC 25922) [14]; 1 µg/mL (≈ 2.08 µM) in assay [15]; 8 µg/mL (≈ 16.6 µM) in the assay with K. pneumoniae (1188718). For the same compound, the MIC was determined as 8 µg/mL (≈ 16.6 µM) with P. aeruginosa (1188712) and 1 µg/mL (≈ 2.08 µM) in assay [16].
In the case of `CC[C@H](C)CCCCC(=O)N[C@@H](CCN)C(=O)N[C@H](C(=O)N[C@@H](CCN)C(=O)N[C@H]1CCNC(=O)[C@H]([C@@H](C)O)NC(=O)[C@H](CCN)NC(=O)[C@H](CCN)NC(=O)[C@H](CC(C)C)NC(=O)[C@@H](Cc2ccccc2)NC(=O)[C@H](CCN)NC1=O)[C@@H](C)O` [polymyxin B] (X1-[Dab]T[Dab][Dab][Dab][dF]L[Dab][Dab]T; lactam 4-C), the MIC in assay [17] is 1 µg/mL (≈ 0.831 µM); in the assay on E. coli (ATCC BAA-2452) it was 1 µg/mL (≈ 0.831 µM); in assay [18], 1 µg/mL (≈ 0.831 µM); in assay [19] it was 2 µg/mL (≈ 1.66 µM); in assay [20] it was 2 µg/mL (≈ 1.66 µM); in assay [21], 64 µg/mL. Also, the MIC in assay [4] (ATCC27883, read-out: MIC antibiotic alone) stood at 1 µg/mL; with E. coli (ATCC 25922) [5] (ATCC25922, read-out: MIC antibiotic alone) it was 2 µg/mL; in assay [12] it was 1 µg/mL; in the assay on MRSA (ATCC BAA-1556) [23], 64 µg/mL (≈ 53.2 µM); in assay [24], 1 µg/mL (≈ 0.831 µM); in assay [25], 1 µg/mL (≈ 0.831 µM). For the same compound, the MIC with E. coli (ATCC 25922) [26] is 2 µg/mL (≈ 1.66 µM). The “change in MIC on resistance induction” value in [6] is “negligible changes in the MICs”. For the same compound, the “MIC S. aureus (ATCC BAA-1556)” value in the assay with MRSA (ATCC BAA-1556) [22] is listed as 64 µg/mL (≈ 53.2 µM). For the same compound, the results for the MBC (in assay [27]; in assay [28]; with E. coli (ATCC 25922) [29]) were 2 µg/mL (≈ 1.66 µM), 2 µg/mL (≈ 1.66 µM) and 4 µg/mL (≈ 3.32 µM), respectively.
